Measured values: patent US9018175B2 (Takeda GmbH, priority 2009, dated 2015)

Legend:
[1] = system: bleomycin-induced pulmonary fibrosis and pulmonary hypertension; conditions: through inhibition of ROS generation and RhoA/Rho kinase activation (Hemnes et al. 2008); cited from earlier work
[2] = system: patients with pulmonary fibrosis; conditions: open-label trials (Ghofrani 2002; Collard 2007); cited from earlier work
[3] = system: bleomycin-induced lung fibrosis; conditions: in-vivo, bleomycin-induced lung fibrosis model in mice (Cortijo et al. 2009); cited from earlier work
PDE4B1 = biological target: T1, PDE4B1 (Homo sapiens, UniProt Q07343); assay: Inhibition of PDE4B1 activity (SPA, [3H]cAMP); assay type: biochemical; conditions: recombinant PDE4B1 expressed in SF21 cells; 0.5 pM [sic] cAMP; values given as bins; read-out: PDE4B1 inhibitory values measured as −logIC50 (converted)
T1 construct: made in house; host or cells: SF21 insect cells (baculovirus; pCR-Bac vector)
T1 sequence (Q07343 whole entry): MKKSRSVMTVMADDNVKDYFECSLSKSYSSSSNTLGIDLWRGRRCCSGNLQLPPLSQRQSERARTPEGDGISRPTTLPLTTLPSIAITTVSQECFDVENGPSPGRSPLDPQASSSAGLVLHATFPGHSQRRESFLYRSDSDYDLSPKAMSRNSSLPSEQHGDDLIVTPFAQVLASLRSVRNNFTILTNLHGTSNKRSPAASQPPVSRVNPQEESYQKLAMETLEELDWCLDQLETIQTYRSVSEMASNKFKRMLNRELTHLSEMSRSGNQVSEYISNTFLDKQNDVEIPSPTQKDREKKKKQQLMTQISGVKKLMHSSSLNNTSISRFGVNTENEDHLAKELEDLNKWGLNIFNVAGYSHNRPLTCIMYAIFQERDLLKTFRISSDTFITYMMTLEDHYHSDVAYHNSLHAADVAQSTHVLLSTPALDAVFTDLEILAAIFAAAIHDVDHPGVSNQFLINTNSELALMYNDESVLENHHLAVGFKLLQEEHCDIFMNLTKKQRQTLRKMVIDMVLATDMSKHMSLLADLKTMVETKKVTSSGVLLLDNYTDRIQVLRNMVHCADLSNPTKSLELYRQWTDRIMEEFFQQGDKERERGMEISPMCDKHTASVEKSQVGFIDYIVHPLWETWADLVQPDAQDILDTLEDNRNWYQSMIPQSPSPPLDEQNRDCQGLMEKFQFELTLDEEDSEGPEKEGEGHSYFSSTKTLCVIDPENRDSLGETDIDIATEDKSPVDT
How it was run: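 Recombinant human PDE4B1 (Sf21 cell 1000 g supernatant) in 20 mM Tris pH 7.4, 0.1 mg/ml BSA, 5 mM Mg2+, […] with [3H]cAMP tracer, enzyme giving 10-20% conversion. After 5 min preincubation at 37 °C, 15 min reaction, stopped by SPA beads with IBMX; IC50 by non-linear regression.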

human PDE5 = biological target: T2, human PDE5 (Homo sapiens, UniProt O76074); assay: Inhibition of PDE5 activity (SPA, [3H]cGMP, platelet lysate); assay type: biochemical; conditions: PDE5 from human platelet lysate; values given as bins; read-out: PDE5A inhibitory values measured as −logIC50 (converted)
T2 construct: from tissue; host or cells: human platelets from fresh donor blood (10,000 g supernatant of sonicated platelets)
How it was run: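 Human platelet lysate served as PDE5 source, with 1 μM motapizone and 10 nM PDE2 inhibitor present; […] plus [3H]cGMP tracer, pH 7.4, 5 mM Mg2+, 10-20% substrate turnover. After 5 min preincubation, 15 min at 37 °C, stopped with SPA beads and IBMX; IC50 by non-linear regression.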

Row | Structure (SMILES) | IC50 (PDE4B1) | IC50 (human PDE5) | further results
1 | CCCc1nn(C)c2c(=O)[nH]c(-c3cc(S(=O)(=O)N4CCN(C)CC4)ccc3OCC)nc12 [sildenafil] |  |  | bleomycin-induced pulmonary fibrosis and pulmonary hypertension [1]: attenuates bleomycin-induced pulmonary fibrosis and pulmonary hypertension; exercise tolerance [2]: increases exercise tolerance; lung hemodynamic (vascular resistance and ventilation/perfusion matching) [2]: improves lung hemodynamic
2 | O=C(Nc1c(Cl)cncc1Cl)c1ccc(OC(F)F)c(OCC2CC2)c1 [roflumilast] |  |  | fibrosis development [3]: inhibit fibrosis development
3 | CCOc1cc2c(cc1OC)C(c1ccc(C(=O)N3CCC(n4c(=O)c5sc(-c6ccccc6)cc5n(Cc5ncc(CC)o5)c4=O)CC3)cc1)=N[C@@H]1CCSC[C@H]21 [Example 1, 3-[1-({4-[(4aR,10bR)-9-ethoxy-8-methoxy-3,4,4a,10b-tetrahydro-1H-thiopyrano[4,3-c]isoquinolin-6-yl]phenyl}carbonyl)piperidin-4-yl]-1-[(5-ethyl-1,3-oxazol-2-yl)methyl]-6-phenylthieno[3,2-d]pyrimidine-2,4(1H,3H)-dione] | 1 to 10 nM | < 10 nM | 
4 | CCOc1cc2c(cc1OC)C(c1ccc(C(=O)N3CCC(n4c(=O)c5sc(-c6ccccc6)cc5n(Cc5noc(C)n5)c4=O)CC3)cc1)=N[C@@H]1CCSC[C@H]21 [Example 2, 3-[1-({4-[(4aR,10bR)-9-ethoxy-8-methoxy-3,4,4a,10b-tetrahydro-1H-thiopyrano[4,3-c]isoquinolin-6-yl]phenyl}carbonyl)piperidin-4-yl]-1-[(5-methyl-1,2,4-oxadiazol-3-yl)methyl]-6-phenylthieno[3,2-d]pyrimidine-2,4(1H,3H)-dione] | 1 to 10 nM | < 10 nM | 
5 | CCOc1cc2c(cc1OC)C(c1ccc(C(=O)N3CCC(n4c(=O)c5sc(-c6ccccc6)cc5n(Cc5cc(CC)no5)c4=O)CC3)cc1)=N[C@@H]1CCSC[C@H]21 [Example 3, 3-[1-({4-[(4aR,10bR)-9-ethoxy-8-methoxy-3,4,4a,10b-tetrahydro-1H-thiopyrano[4,3-c]isoquinolin-6-yl]phenyl}carbonyl)piperidin-4-yl]-1-[(3-ethylisoxazol-5-yl)methyl]-6-phenylthieno[3,2-d]pyrimidine-2,4(1H,3H)-dione] | 1 to 10 nM | < 10 nM | 
6 | CCOc1cc2c(cc1OC)C(c1ccc(C(=O)N3CCC(n4c(=O)c5sc(-c6ccccc6)cc5n(Cc5nc(C)cs5)c4=O)CC3)cc1)=N[C@@H]1CCSC[C@H]21 [Example 13, 3-[1-({4-[(4aR,10bR)-9-ethoxy-8-methoxy-3,4,4a,10b-tetrahydro-1H-thiopyrano[4,3-c]isoquinolin-6-yl]phenyl}carbonyl)piperidin-4-yl]-1-[(4-methyl-1,3-thiazol-2-yl)methyl]-6-phenylthieno[3,2-d]pyrimidine-2,4(1H,3H)-dione] | 1 to 10 nM | > 100 nM | 
7 | CCOc1cc2c(cc1OC)C(c1ccc(C(=O)N3CCC(n4c(=O)c5sc(-c6ccccc6)cc5n(Cc5nc(CC)co5)c4=O)CC3)cc1)=N[C@@H]1CCSC[C@H]21 [Example 5, 3-[1-({4-[(4aR,10bR)-9-ethoxy-8-methoxy-3,4,4a,10b-tetrahydro-1H-thiopyrano[4,3-c]isoquinolin-6-yl]phenyl}carbonyl)piperidin-4-yl]-1-[(4-ethyl-1,3-oxazol-2-yl)methyl]-6-phenylthieno[3,2-d]pyrimidine-2,4(1H,3H)-dione] | 1 to 10 nM | 10 to 100 nM | 
8 | CCOc1cc2c(cc1OC)C(c1ccc(C(=O)N3CCC(n4c(=O)c5sc(-c6ccccc6)cc5n(Cc5nccn5C)c4=O)CC3)cc1)=N[C@@H]1CCSC[C@H]21 [Example 53, 3-[1-({4-[(4aR,10bR)-9-ethoxy-8-methoxy-3,4,4a,10b-tetrahydro-1H-thiopyrano[4,3-c]isoquinolin-6-yl]phenyl}carbonyl)piperidin-4-yl]-1-[(1-methyl-1H-imidazol-2-yl)methyl]-6-phenylthieno[3,2-d]pyrimidine-2,4(1H,3H)-dione] | < 1 nM | > 100 nM | 
9 | CCOc1cc2c(cc1OC)C(c1ccc(C(=O)N3CCC(n4c(=O)c5sc(-c6ccccc6)cc5n(Cc5ncc(C)s5)c4=O)CC3)cc1)=N[C@@H]1CCSC[C@H]21 [Example 12, 3-[1-({4-[(4aR,10bR)-9-ethoxy-8-methoxy-3,4,4a,10b-tetrahydro-1H-thiopyrano[4,3-c]isoquinolin-6-yl]phenyl}carbonyl)piperidin-4-yl]-1-[(5-methyl-1,3-thiazol-2-yl)methyl]-6-phenylthieno[3,2-d]pyrimidine-2,4(1H,3H)-dione] | 1 to 10 nM | 10 to 100 nM | 
10 | CCOc1cc2c(cc1OC)C(c1ccc(C(=O)N3CCC(n4c(=O)c5sc(-c6ccccc6)cc5n(Cc5nc(CC)ns5)c4=O)CC3)cc1)=N[C@@H]1CCSC[C@H]21 [Example 22, 3-[1-({4-[(4aR,10bR)-9-ethoxy-8-methoxy-3,4,4a,10b-tetrahydro-1H-thiopyrano[4,3-c]isoquinolin-6-yl]phenyl}carbonyl)piperidin-4-yl]-1-[(3-ethyl-1,2,4-thiadiazol-5-yl)methyl]-6-phenylthieno[3,2-d]pyrimidine-2,4(1H,3H)-dione] | 1 to 10 nM | 10 to 100 nM | 

Continued, in another order:

Row | IC50 (PDE4B1) | IC50 (human PDE5) | Structure (SMILES) | further results
11 | 1 to 10 nM | < 10 nM | CCOc1cc2c(cc1OC)C(c1ccc(C(=O)N3CCC(n4c(=O)c5sc(-c6ccc(F)cc6)cc5n(Cc5nc(CC)no5)c4=O)CC3)cc1)=N[C@@H]1CCSC[C@H]21 [Example 47, 3-[1-({4-[(4aR,10bR)-9-ethoxy-8-methoxy-3,4,4a,10b-tetrahydro-1H-thiopyrano[4,3-c]isoquinolin-6-yl]phenyl}carbonyl)piperidin-4-yl]-1-[(3-ethyl-1,2,4-oxadiazol-5-yl)methyl]-6-(4-fluorophenyl)thieno[3,2-d]pyrimidine-2,4(1H,3H)-dione] | 
12 | > 10 nM | < 10 nM | CCOc1cc2c(cc1OC)C(c1cccc(C(=O)N3CCC(n4c(=O)c5sc(-c6ccccc6)cc5n(Cc5nnn(CC)n5)c4=O)CC3)c1)=N[C@@H]1CCSC[C@H]21 [Example 26, 3-[1-({3-[(4aR,10bR)-9-ethoxy-8-methoxy-3,4,4a,10b-tetrahydro-1H-thiopyrano[4,3-c]isoquinolin-6-yl]phenyl}carbonyl)piperidin-4-yl]-1-[(2-ethyl-2H-tetrazol-5-yl)methyl]-6-phenylthieno[3,2-d]pyrimidine-2,4(1H,3H)-dione] | 
13 | > 10 nM | < 10 nM | CCOc1cc2c(cc1OC)C(c1ccc(C(=O)N3CCC(n4c(=O)c5sc(-c6ccc(F)cc6)cc5n(Cc5nnn(CC)n5)c4=O)CC3)cc1)=N[C@@H]1CCSC[C@H]21 [Example 40, 3-[1-({4-[(4aR,10bR)-9-ethoxy-8-methoxy-3,4,4a,10b-tetrahydro-1H-thiopyrano[4,3-c]isoquinolin-6-yl]phenyl}carbonyl)piperidin-4-yl]-1-[(2-ethyl-2H-tetrazol-5-yl)methyl]-6-(4-fluorophenyl)thieno[3,2-d]pyrimidine-2,4(1H,3H)-dione] | 
14 | 1 to 10 nM | < 10 nM | CCOc1cc2c(cc1OC)C(c1ccc(C(=O)N3CCC(n4c(=O)c5sc(-c6ccc(F)cc6OC)cc5n(Cc5nnn(CC)n5)c4=O)CC3)cc1)=N[C@@H]1CCSC[C@H]21 [Example 32, 3-[1-({4-[(4aR,10bR)-9-ethoxy-8-methoxy-3,4,4a,10b-tetrahydro-1H-thiopyrano[4,3-c]isoquinolin-6-yl]phenyl}carbonyl)piperidin-4-yl]-1-[(2-ethyl-2H-tetrazol-5-yl)methyl]-6-(4-fluoro-2-methoxyphenyl)thieno[3,2-d]pyrimidine-2,4(1H,3H)-dione] | 
15 | 1 to 10 nM | < 10 nM | CCOc1cc2c(cc1OC)C(c1cccc(C(=O)N3CCC(n4c(=O)c5sc(-c6ccc(F)cc6OC)cc5n(Cc5nc(COC)no5)c4=O)CC3)c1)=N[C@@H]1CCSC[C@H]21 [Example 45, 3-[1-({3-[(4aR,10bR)-9-ethoxy-8-methoxy-3,4,4a,10b-tetrahydro-1H-thiopyrano[4,3-c]isoquinolin-6-yl]phenyl}carbonyl)piperidin-4-yl]-6-(4-fluoro-2-methoxyphenyl)-1-{[3-(methoxymethyl)-1,2,4-oxadiazol-5-yl]methyl}thieno[3,2-d]pyrimidine-2,4(1H,3H)-dione] | 
